Measured values taken from the NIST ThermoML archive (doi:10.1016/j.fluid.2018.11.012).
± gives the expanded uncertainty stated by the source.

Tests used:
[1] = 298.15 K; 101.33 kPa; Liquid; Vibrating tube method
[2] = refractive index (Na D-line) (dimensionless); conditions: 298.15 K; 101.33 kPa; Liquid; Standard Abbe refractometry

Row | Structure (SMILES) | mass density [1] | refractive index [2]
1 | CCCCCCCCCCCCCC [tetradecane] | 759.38 ± 0.26 kg/m3 | 1.4269 ± 0.0008
2 | CC1CCC(=O)O1 (centres undefined) [γ-valerolactone] | 1049.25 ± 0.3 kg/m3 | 1.4312 ± 0.0008
